The target in this test is POLRMT (Homo sapiens (Human), UniProt O00411). The test is described as follows: homogeneous TR-FRET assay of mitochondrial transcription (inhibition of POLRMT). As to conditions: 7.5 nM POLRMT, 15 nM TFB2M, 30 nM TFAM, 0.5 nM DNA template, 500 μM NTPs, 37° C., 60 minutes. The test is classed as biochemical. A digest of the protocol: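 Human POLRMT (7.5 nM) with TFB2M (15 nM), TFAM (30 nM), 0.5 nM linearized LSP plasmid template and 500 μM NTPs in pH 7.5 Tris/MgCl2 buffer, 60 min at 37 °C. Stopped with EDTA/high-salt; 407 bp transcript detected by hybridized Europium/ATTO647N probes. 665/620 nm ratio gives activity.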
POLRMT, sequence (O00411 42-1230): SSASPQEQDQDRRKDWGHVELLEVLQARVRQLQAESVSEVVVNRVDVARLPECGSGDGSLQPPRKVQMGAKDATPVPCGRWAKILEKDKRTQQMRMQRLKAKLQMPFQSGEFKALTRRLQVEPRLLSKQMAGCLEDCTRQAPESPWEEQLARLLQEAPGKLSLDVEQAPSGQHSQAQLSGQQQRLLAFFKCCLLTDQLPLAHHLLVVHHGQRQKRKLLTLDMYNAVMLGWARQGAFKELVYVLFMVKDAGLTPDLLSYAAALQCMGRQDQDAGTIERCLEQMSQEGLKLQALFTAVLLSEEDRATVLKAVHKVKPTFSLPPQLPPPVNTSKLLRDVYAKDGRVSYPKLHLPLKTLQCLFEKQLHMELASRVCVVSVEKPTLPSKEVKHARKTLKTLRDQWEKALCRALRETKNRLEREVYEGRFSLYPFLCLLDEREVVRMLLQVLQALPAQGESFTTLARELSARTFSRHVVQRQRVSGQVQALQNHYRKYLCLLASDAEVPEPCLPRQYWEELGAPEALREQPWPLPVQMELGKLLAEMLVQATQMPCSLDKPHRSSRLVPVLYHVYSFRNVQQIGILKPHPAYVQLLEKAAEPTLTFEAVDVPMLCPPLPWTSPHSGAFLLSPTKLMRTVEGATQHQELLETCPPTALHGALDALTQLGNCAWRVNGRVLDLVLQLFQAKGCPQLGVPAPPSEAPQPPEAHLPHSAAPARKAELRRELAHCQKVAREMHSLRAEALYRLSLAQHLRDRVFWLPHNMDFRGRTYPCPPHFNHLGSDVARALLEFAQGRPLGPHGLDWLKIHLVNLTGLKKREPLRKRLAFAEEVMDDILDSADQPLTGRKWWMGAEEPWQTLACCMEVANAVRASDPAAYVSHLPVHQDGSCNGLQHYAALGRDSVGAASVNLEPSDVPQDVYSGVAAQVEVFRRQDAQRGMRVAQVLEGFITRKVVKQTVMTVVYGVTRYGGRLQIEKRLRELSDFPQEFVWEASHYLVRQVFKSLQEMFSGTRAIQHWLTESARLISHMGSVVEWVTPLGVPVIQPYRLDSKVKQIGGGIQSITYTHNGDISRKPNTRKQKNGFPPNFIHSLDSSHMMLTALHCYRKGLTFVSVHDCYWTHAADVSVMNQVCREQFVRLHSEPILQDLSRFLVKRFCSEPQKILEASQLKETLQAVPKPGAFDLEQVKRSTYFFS
On the technique in general: In TR-FRET formats the signal depends on donor and acceptor labels being close together.

Molecule `Cc1ccccc1-c1cc(=O)oc2cc(OC(CO)C(=O)O)ccc12` (stereo not drawn) [Example 102, 3-hydroxy-2-((2-oxo-4-(o-tolyl)-2H-chromen-7-yl)oxy)propanoic acid] returned a half-inhibitory concentration (IC50) of 1000 nM. The result for `Cc1ccccc1-c1cc(=O)oc2cc(O[C@@H](CO)C(=O)O)ccc12` [Example 103, (S)-3-hydroxy-2-((2-oxo-4-(o-tolyl)-2H-chromen-7-yl)oxy)propanoic acid] reads 16000 nM; that for `COC[C@H](Oc1ccc2c(-c3ccccc3C)cc(=O)oc2c1)C(=O)O` [Example 104, (S)-3-methoxy-2-((2-oxo-4-(o-tolyl)-2H-chromen-7-yl)oxy)propanoic acid], 2000 nM. The result for `COC(=O)C(COC(F)(F)F)Oc1ccc2c(-c3ccccc3C)cc(=O)oc2c1` (stereo not drawn) [Example 105, methyl 2-((2-oxo-4-(o-tolyl)-2H-chromen-7-yl)oxy)-3-(trifluoromethoxy)propanoate] reads 40 nM.

As for `Cc1ccccc1-c1cc(=O)oc2cc(OC(COC(F)(F)F)C(=O)O)ccc12` (stereo not drawn) [Example 106, 2-((2-oxo-4-(o-tolyl)-2H-chromen-7-yl)oxy)-3-(trifluoromethoxy)propanoic acid], the half-maximal inhibitory concentration (IC50) stood at 30 nM.

`Cc1cccc(C)c1-c1cc(=O)oc2cc(OCC#N)ccc12` [Example 107, 2-((4-(2,6-dimethylphenyl)-2-oxo-2H-chromen-7-yl)oxy)acetonitrile] showed an IC50 of 30 nM. With `Cc1ccccc1-c1cc(=O)oc2cc(OCC(N)=O)ccc12` [Example 108, 2-((2-oxo-4-(o-tolyl)-2H-chromen-7-yl)oxy)acetamide] the figure was 200 nM; with `Cc1ccccc1-c1cc(=O)oc2cc(OC(C)C(F)(F)F)ccc12` (stereo not drawn) [Example 109, 4-(o-tolyl)-7-((1,1,1-trifluoropropan-2-yl)oxy)-2H-chromen-2-one], 300 nM. `C[C@@H](Oc1ccc2c(-c3ccc(F)cc3Cl)cc(=O)oc2c1)C(=O)N1CCS(=O)(=O)CC1` [Example 110, (R)-4-(2-chloro-4-fluorophenyl)-7-((1-(1,1-dioxidothiomorpholino)-1-oxopropan-2-yl)oxy)-2H-chromen-2-one] came in with a half-inhibitory concentration (IC50) of 500 nM. The result for `Cc1ccccc1-c1cc(=O)oc2cc(O[C@H](C)C(=O)N3CCS(=O)(=O)CC3)ccc12` [Example 111, (R)-7-((1-(1,1-dioxidothiomorpholino)-1-oxopropan-2-yl)oxy)-4-(o-tolyl)-2H-chromen-2-one] reads 200 nM.

Turning to `Cc1cccc(C)c1-c1cc(=O)oc2cc(O[C@H](C)C(=O)N3CCS(=O)(=O)CC3)ccc12` [Example 112, (R)-4-(2,6-dimethylphenyl)-7-((1-(1,1-dioxidothiomorpholino)-1-oxopropan-2-yl)oxy)-2H-chromen-2-one], half-maximal inhibition (IC50) required 65000 nM. The result for `CCCOc1ccc2c(-c3ccccc3)cc(=O)oc2c1` [Example 113, 4-phenyl-7-propoxy-2H-chromen-2-one] reads 4000 nM.

Usually IC50 stands for the concentration needed to halve the response being measured. A high value points to a need for much substance.

The values are drawn from patent US20240368106A1, “HYDROXY AND ALKOXY COUMARINS AS MODULATORS OF POLRMT” (Pretzel Therapeutics, Inc., priority 2021, published 2024).
